The source of these data is paper PMC6927413 (Chemical Communications (Cambridge, England), 2019).

Entries after “also recorded” stand apart in the source; their conditions may differ. Where two headings read alike, the source gives them in different places.

Assay [1] has as its target T1, psBBOX-Y201C-BFA (psBBOX*) (Pseudomonas sp., UniProt P80193, Y201C).
T1 construct: hexa-His tag (pCOLDI) (N); made in house; host or cells: E. coli BL21 (DE3)
Nature of the assay: 1H NMR inhibition assay of psBBOX-Y201C-BFA (psBBOX*) catalysed GBB turnover. It is filed as biochemical, Pseudomonas sp. AK1. As to the method:
(§1) in 20 mM HCl in D2O), 200 μM GBB (Cl- salt), 600 μM 2OG, in Tris-d11 (pH 7.5 in H 2O).
(§2) 2OG, in phosphate buffer (50 mM, pH 7.1, pD 7.5, in D2O). […]
([(NH4)2Fe(SO4)2.6H2O] in 20mM HCl in D2O), 600 μM 2OG, 500 μM L-ascorbate (di-sodium salt), in Tris-d11 ( p H 7 . 5 i n H 2O ) . […]

Assay [2] addresses T1, psBBOX-Y201C-BFA (psBBOX*). Nature of the assay: 1H NMR binding assay with psBBOX-Y201C-BFA (psBBOX*). Also noted: species or system Pseudomonas sp. AK1. As to the method:
as §1, §2

Assay [3] addresses T2, psBBOX*-Zn(II) (Pseudomonas sp., UniProt P80193, Y201C).
T2 construct: hexa-His tag (pCOLDI) (N); made in house; host or cells: E. coli BL21 (DE3)
Nature of the assay: Protein-observed 19F NMR (PrOF) ligand titrations with psBBOX*. In kind it is binding, Pseudomonas sp. AK1. As to conditions: for effect on the original psBBOX* 19F NMR signal: titration with psBBOX*-Zn(II). As to the method:
NMR materials and methods2 […]
broadening of 20 Hz was applied using MestReNova version 11.0. Spectra were referenced to […]
contained: 100 μM psBBOX* in Tris buffer (50 mM, pH 7.5) and 200 mM NaCl in 90% H2O and […]

The subject of assay [4] is hBBOX. The following applies: cited from earlier work.
The target in assay [5] is T3, psBBOX (Pseudomonas sp., UniProt P80193).
T3 construct: N-terminal hexa-His tag (pCOLD I vector); printed for the Y201C variant, inferred for wild type from the pCOLD template (N); made in house; host or cells: Escherichia coli
It is filed as binding, Pseudomonas sp. AK1. The following applies: 1H NMR reporter assay; for GBB displacement: titration into psBBOX-Zn(II)-2OG-GBB complex; for displacement of GBB and 2OG from the psBBOX active site: wild-type psBBOX. The text has this: NMR based reporter BBOX assays, using either Zn^(II) or Mn^(II) (making use of paramagnetic relaxation enhancement (PRE)) to observe ligand binding are reported.[25] These enable monitoring of co/substrate 2OG/γ-butyrobetaine (GBB; 3) psBBOX binding and inform on binding modes of inhibitors, including whether they displace GBB and/or 2OG. We now report ^19F NMR studies on ligand binding to BBOX; the work was initiated following ^1H NMR observations concerning the binding of Mildronate to psBBOX.
Since psBBOX is dimeric[21],[22] (Fig. 1C), these observations led to the proposal that binding of a second molecule of GBB (or Mildronate) to the psBBOX-Zn^(II)-2OG–GBB complex strengthens binding of the first GBB molecule, i.e. there is cooperativity in substrate binding between the monomers of the dimer.
Background: A reporter such as luciferase makes a cellular process visible.

Assay [6] deals with T4, wt-psBBOX (Pseudomonas sp., UniProt P80193). As to conditions: 2 μM psBBOX, 50 μM metal, 50 mM HEPES pH 7.5; for Tm Shift: relative to protein without metal. As to the method: psBBOX Differential Scanning Fluorimetry (DSF) assays
See also Supplementary Figure S5. […]
concentration 50 μM). Controls contained 10 μL of buffer instead of metal solution. 2 mL of master mix was prepared by mixing 1.25 mL stock of sypro orange (made by diluting 1 μL of […]
and 739 μl of 50 mM HEPES pH 7.5. […]
μL. Metal solutions were made freshly. Experiments was carried out in triplicate.
DSF was performed using a MiniOpticon Real-Time PCR Detection System (Bio-Rad), monitoring protein unfolding using SYPRO orange (Invitrogen) according to reported […]
nm) filters were used for excitation and the emission, respectively. Reaction mixtures contained: 2 μM protein, 50 μM metal and 1 × SYPRO orange (final volume 50 μL). Reagents were prepared in 50 mM HEPES buffer pH 7.5. Iron solution was prepared shortly before […]
temperature increased linearly by 1 °C per minute.
The inflection point, representing Tm, was calculated by fitting the Boltzmann equation to the sigmoidal curves obtained; data were processed using GraphPad Prism 5.0. The Tm shift caused by the addition of small molecules/fragments was determined by subtraction of the “reference” Tm (protein without metal) from the Tm obtained in the presence of the metal.

The target in assay [7] is T4, wt-psBBOX. Nature of the assay: Fluoride release assay. In kind it is biochemical, Pseudomonas sp. AK1. Also noted: N-terminal hexa-His tag (pCOLD I vector); printed for the Y201C variant, inferred for wild type from the pCOLD template (N); made in house; host or cells: Escherichia coli. As to the method:
The combined NMR studies on ligand binding led to the proposal that a new BBOX inhibitor scaffold could be identified by directly incorporating analogues of identified 2OG and GBB binding motifs, comprising appropriately positioned metal chelating and quaternary ammonium moieties, giving a ‘co-substrate/substrate’ mimic. With this in mind, RL190B (8) was synthesised (ESI ^†); it is a relatively potent psBBOX inhibitor (IC50 = 5 μM (fluoride release assay)[31]). […] By contrast with other ligand titrations using psBBOX* such significant line broadening was not observed (e.g. Fig. S11–S13, ESI ^†). Broadening of signals in PrOF NMR is often typical of weaker inhibitors; the significant (and unusual amongst studied compounds) signal attenuation observed with (8) may be a result of its binding in both 2OG and GBB cavities. This may cause changes of conformational mobility/protein destabilisation, potentially yielding a number of indistinct conformational states.
(B) RL190B is a 2OG and substrate mimic. (C) RL190B causes attenuation of the psBBOX* ^19F NMR signal. (D) RL190B inhibition of wt-psBBOX as determined by a fluoride release assay.[31] TEXT PRINTED IN THE PICTURE: (D) RL190B (8): IC50 (psBBOX) = 5 μM

Assay [8] concerns the target T3, psBBOX. As to conditions: reported GBB substrate analogues, hydroxylated to L-carnitine analogues; cited from earlier work.
Assay [9] has as its system BBOX. Also noted: method as in earlier work. As to conditions: 2OG-competing, metal-chelating BBOX inhibitor; cited from earlier work.
Assay [10] deals with T4, wt-psBBOX. As to conditions: Km for 2OG; cited from earlier work.

T1 sequence (P80193 whole entry Y201C): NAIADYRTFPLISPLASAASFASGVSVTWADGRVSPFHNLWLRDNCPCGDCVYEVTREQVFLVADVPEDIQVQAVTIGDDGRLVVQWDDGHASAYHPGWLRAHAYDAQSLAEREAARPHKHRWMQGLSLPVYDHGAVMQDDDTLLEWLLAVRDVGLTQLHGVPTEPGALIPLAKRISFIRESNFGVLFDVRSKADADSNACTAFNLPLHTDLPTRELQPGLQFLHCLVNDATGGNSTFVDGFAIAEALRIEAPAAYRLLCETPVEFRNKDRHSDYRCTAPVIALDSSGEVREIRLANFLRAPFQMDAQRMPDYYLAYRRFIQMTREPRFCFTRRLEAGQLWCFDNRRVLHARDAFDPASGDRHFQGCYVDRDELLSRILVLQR
T2 sequence (P80193 whole entry Y201C): as above
T4 sequence (P80193 whole entry): as the sequence (P80193 whole entry Y201C) above, with C201Y counted along it

By IC50 is commonly meant the point on the concentration scale where inhibition reaches its midpoint. Turning to `O=C(N[C@@H](CSCc1ccccn1)C(=O)O)c1ncccc1O` [AR692B], the IC50 in assay [1] was determined as 245 µM.

The Kd is the free concentration of one partner at which half of the binding sites on the other are occupied at equilibrium, for simple one-to-one binding. A lower Kd goes with a tighter complex. Regarding `C[N+](C)(C)NCCC(=O)[O-]` [Mildronate, reference compound], binding in assay [2] was characterised by a dissociation constant (Kd) of 12.3 ± 1 µM. For the same molecule, the “inhibition of psBBOX* catalysed GBB turnover” value in [1] (1H NMR, 2.5 μM psBBOX*, 100 μM Fe(II), 200 μM GBB, 600 μM 2OG) is on record as “unable to detect inhibition”. The “change of 19F NMR spectrum on addition to psBBOX*-Zn(II)-GBB-2OG” value in [3] (psBBOX*-Zn(II)-GBB-2OG) was “does not change; also recorded: did not manifest detectable changes”. Besides, the IC50 in [4] is 34 to 60 µM. The GBB displacement is given as ≤ 60% in [5] and ~60% in assay [5] (listed as 4).

In the case of `[Fe+2]` [Fe(II)], in [6], the “Tm Shift” value is 8.4±0.7 °C.

Take `C[N+](C)(C)CCCCN(O)C(=O)/C=C/C(=O)O` [RL190B, (E)-4-(3-Carboxy-N-hydroxyacrylamido)-N,N,N-trimethylbutan-1-aminium]: the 50% inhibitory concentration (IC50) in assay [1] amounted to 15 µM; in [7], 5 µM. Moreover, the “effect on the original psBBOX* 19F NMR signal” value in assay [3] was “attenuation”; in assay [3] (listed as 8), “significant broadening and almost complete attenuation”. Further, the “displacement of GBB and 2OG from the psBBOX active site” value was “displaces both GBB and 2OG” in assay [5]; “displace both GBB and 2OG” in assay [5] (listed as 8).

Turning to `C[P+](C)(C)CCCC(=O)[O-]` [P-GBB], the “substrate for psBBOX” value in [8] is “substrates”.

For the molecule `O=C(N[C@@H](Cc1c[nH]c2ccccc12)C(=O)O)c1nc(Cl)c2ccccc2c1O` [compound 5], the 50% inhibitory concentration (IC50) in [9] is 900 nM.

On to `[Na+]` [Na(I)], for which, in assay [6], the Tm came to 20.5±0.4 and the “Tm Shift” value came out at 0.2±0.1 °C.

For `[Co+2]` [Co(II)], in assay [6], the Tm came out at 6.6±2.2 and the “Tm Shift” value was found to be 15.7±0.8 °C.

As for `[K+]` [K(I)], in assay [6], the “Tm Shift” value is 0.0±0.1 °C.

For `[Mn+2]` [Mn(II)], in assay [6], the Tm came to 17.7±1.4 and the “Tm Shift” value came out at 1.3±0.2 °C.

The Km is the concentration of substrate that gives half-maximal velocity. Regarding `O=C(O)CCC(=O)C(=O)O` [2OG, 2-oxoglutarate], in [10], the Km was 532 µM.

Consider `[Ni+2]` [Ni(II)], for which, in assay [6], the Tm is recorded as 12.3±0.2 and the “Tm Shift” value came out at 18.1±0.1 °C.

As for `[Zn+2]` [Zn(II)], in assay [6], the Tm is given as 6.6±0.7 and the “Tm Shift” value turned out to be 12.8±1.3 °C.

Consider `[Mg+2]` [Mg(II)], for which, in assay [6], the Tm amounted to 20.1±0.2 and the “Tm Shift” value amounted to 0.0±0.1 °C.

Regarding `[Cu+2]` [Cu(II)], in assay [6], the Tm was 6.3±0.5 and the “Tm Shift” value came out at 12.4±1.1 °C.
